Experiments:
AZD1775 = compound: C=CCn1c(=O)c2cnc(Nc3ccc(N4CCN(C)CC4)cc3)nc2n1-c1cccc(C(C)(C)O)n1 [AZD1775]
How it was run: (§1)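 Cancer cell lines were dosed for 72 hours (final DMSO typically 0.2%) after 24 hours at 37°C and 5% CO2 in 1536-well plates containing 7.5 μl DMEM/F12 or RPMI with 10% FBS. Viability came from CellTiter-Glo 2.0 luminescence, scaled between blank-well and DMSO-well means, and dose responses were fitted to a two-parameter logistic curve with a non-linear mixed effects model. The single-agent IC50 was obtained from this fit.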

SRA737 = compound: N#Cc1cnc(Nc2cc(NC[C@H]3CNCCO3)c(C(F)(F)F)cn2)cn1 [SRA737]; conditions: max 10 µM
How it was run: as §1

Lapatinib = compound: CS(=O)(=O)CCNCc1ccc(-c2ccc3ncnc(Nc4ccc(OCc5cccc(F)c5)c(Cl)c4)c3c2)o1 [Lapatinib]; conditions: max 10 µM
How it was run: as §1

AZD4320 = compound: CN(CC[C@H](CSC1=CC=CC=C1)NC2=C(C=C(C=C2)S(=O)(=O)NC(=O)C3=CC=C(C=C3)N4CCC(CC4)[C@H](C5=CC=CC=C5C6=CC=C(C=C6)Cl)O)S(=O)(=O)C(F)(F)F)CCO [AZD4320]; conditions: max 1 µM
How it was run: as §1

SN-38 = compound: CCc1c2c(nc3ccc(O)cc13)-c1cc3c(c(=O)n1C2)COC(=O)[C@]3(O)CC [SN-38]; conditions: max 0.3 µM
How it was run: as §1

Carboplatin = compound: C1CC(C1)(C(=O)[O-])C(=O)[O-].N.N.[Pt+2] [Carboplatin]; conditions: max 10 µM
How it was run: as §1

Gefitinib = compound: COc1cc2ncnc(Nc3ccc(F)c(Cl)c3)c2cc1OCCCN1CCOCC1 [Gefitinib]; conditions: max 10 µM
How it was run: as §1

Palbociclib = compound: CC(=O)c1c(C)c2cnc(Nc3ccc(N4CCNCC4)cn3)nc2n(C2CCCC2)c1=O [Palbociclib]; conditions: max 10 µM
How it was run: as §1

Dasatinib = compound: CC1=C(C(=CC=C1)Cl)NC(=O)C2=CN=C(S2)NC3=CC(=NC(=N3)C)N4CCN(CC4)CCO [Dasatinib]; conditions: max 2 µM
How it was run: as §1

Trametinib = compound: CC(=O)Nc1cccc(-n2c(=O)n(C3CC3)c(=O)c3c(Nc4ccc(I)cc4F)n(C)c(=O)c(C)c32)c1 [Trametinib]; conditions: max 1 µM
How it was run: as §1

AZD5363 = compound: C1CN(CCC1(C(=O)N[C@@H](CCO)C2=CC=C(C=C2)Cl)N)C3=NC=NC4=C3C=CN4 [AZD5363]; conditions: max 10 µM
How it was run: as §1

AZD5153 = compound: COc1nnc2ccc(N3CCC(c4ccc(OCCN5CCN(C)C(=O)[C@H]5C)cc4)CC3)nn12 [AZD5153]; conditions: max 1 µM
How it was run: as §1

MK-2206 = compound: NC1(c2ccc(-c3nc4ccn5c(=O)[nH]nc5c4cc3-c3ccccc3)cc2)CCC1 [MK-2206]; conditions: max 10 µM
How it was run: as §1

AZD1390 = compound: CC(C)n1c(=O)n(C)c2cnc3cc(F)c(-c4ccc(OCCCN5CCCCC5)nc4)cc3c21 [AZD1390]; conditions: max 0.3 µM
How it was run: as §1

Olaparib = compound: O=C(c1cc(Cc2n[nH]c(=O)c3ccccc23)ccc1F)N1CCN(C(=O)C2CC2)CC1 [Olaparib]; conditions: max 10 µM
How it was run: as §1

[1] = compound: O=C(Nc1ccc2[nH]nc(-c3ccncc3)c2c1)[C@@H]1CCN(CC(=O)N2CCN(c3ccc(-c4ncccn4)cc3)CC2)C1; conditions: max 5 µM
How it was run: as §1

Savolitinib = compound: C[C@@H](c1ccc2nccn2c1)n1nnc2ncc(-c3cnn(C)c3)nc21 [Savolitinib]; conditions: max 1 µM
How it was run: as §1

Selumetinib = compound: Cn1cnc2c(F)c(Nc3ccc(Br)cc3Cl)c(C(=O)NOCCO)cc21 [Selumetinib]; conditions: max 10 µM
How it was run: as §1

Etoposide = compound: COc1cc([C@@H]2c3cc4c(cc3[C@@H](O[C@@H]3O[C@@H]5CO[C@@H](C)O[C@H]5[C@H](O)[C@H]3O)[C@H]3COC(=O)[C@H]23)OCO4)cc(OC)c1O [Etoposide]; conditions: max 10 µM
How it was run: as §1

Crizotinib = compound: C[C@@H](Oc1cc(-c2cnn(C3CCNCC3)c2)cnc1N)c1c(Cl)ccc(F)c1Cl [Crizotinib]; conditions: max 10 µM
How it was run: as §1

AZD7648 = compound: Cc1cc2ncnn2cc1Nc1ncc2c(n1)n(C1CCOCC1)c(=O)n2C [AZD7648]; conditions: max 10 µM
How it was run: as §1

AZD2811 = compound: CCN(CCO)CCCOc1ccc2c(Nc3cc(CC(=O)Nc4cccc(F)c4)[nH]n3)ncnc2c1 [AZD2811]; conditions: max 1 µM
How it was run: as §1

Gemcitabine = compound: Nc1ccn([C@@H]2O[C@H](CO)[C@@H](O)C2(F)F)c(=O)n1 [Gemcitabine]; conditions: max 0.3 µM
How it was run: as §1

Venetoclax = compound: CC1(C)CCC(CN2CCN(c3ccc(C(=O)NS(=O)(=O)c4ccc(NCC5CCOCC5)c([N+](=O)[O-])c4)c(Oc4cnc5[nH]ccc5c4)c3)CC2)=C(c2ccc(Cl)cc2)C1 [Venetoclax]; conditions: max 1 µM
How it was run: as §1

Doxorubicin = compound: COc1cccc2c1C(=O)c1c(O)c3c(c(O)c1C2=O)C[C@@](O)(C(=O)CO)C[C@@H]3O[C@H]1C[C@H](N)[C@H](O)[C@H](C)O1 [Doxorubicin]; conditions: max 1 µM
How it was run: as §1

AZD8186 = compound: C[C@@H](Nc1cc(F)cc(F)c1)c1cc(C(=O)N(C)C)cc2c(=O)cc(N3CCOCC3)oc12 [AZD8186]; conditions: max 10 µM
How it was run: as §1

Prexasertib = compound: COc1cccc(OCCCN)c1-c1cc(Nc2cnc(C#N)cn2)n[nH]1 [Prexasertib]; conditions: max 1 µM
How it was run: as §1

SG3199 = compound: CC1=CN2[C@@H](C1)C=NC3=CC(=C(C=C3C2=O)OC)OCCCCCOC4=C(C=C5C(=C4)N=C[C@@H]6CC(=CN6C5=O)C)OC [SG3199]; conditions: max 0.001 µM
How it was run: as §1

Alisertib = compound: COc1cc(Nc2ncc3c(n2)-c2ccc(Cl)cc2C(c2c(F)cccc2OC)=NC3)ccc1C(=O)O [Alisertib]; conditions: max 10 µM
How it was run: as §1

AZD5991 = compound: Cc1c2c(nn1C)CSCc1cc(n(C)n1)CSc1cc(c3ccccc3c1)OCCCc1c(C(=O)O)n(C)c3c-2c(Cl)ccc13 [AZD5991]; conditions: max 1 µM
How it was run: as §1

AZD0156 = compound: CN(C)CCCOc1ccc(-c2ccc3ncc4c(c3c2)n(C2CCOCC2)c(=O)n4C)cn1 [AZD0156]
How it was run: as §1

Paclitaxel = compound: CC(=O)O[C@H]1C(=O)[C@@]2(C)[C@H]([C@H](OC(=O)c3ccccc3)[C@]3(O)C[C@H](OC(=O)[C@H](O)[C@@H](NC(=O)c4ccccc4)c4ccccc4)C(C)=C1C3(C)C)[C@]1(OC(C)=O)CO[C@@H]1C[C@@H]2O [Paclitaxel]; conditions: max 3 µM
How it was run: as §1

5-Fluorouracil = compound: O=c1[nH]cc(F)c(=O)[nH]1 [5-Fluorouracil]; conditions: max 20 µM
How it was run: as §1

Taselisib = compound: Cc1nc(-c2cn3c(n2)-c2ccc(-c4cnn(C(C)(C)C(N)=O)c4)cc2OCC3)n(C(C)C)n1 [Taselisib]; conditions: max 10 µM
How it was run: as §1

AZD6738 = compound: C[C@@H]1COCCN1C2=NC(=NC(=C2)C3(CC3)[S@](=N)(=O)C)C4=C5C=CNC5=NC=C4 [AZD6738]; conditions: max 10 µM
How it was run: as §1

SNU-16 (Gastric Carcinoma) was tested, and the “IC50, cell viability 72 h” value (AZD1775; max 1 µM) was 0.522 µM, the “IC50, cell viability 72 h” value (SRA737) was 1.2 µM and the “IC50, cell viability 72 h” value (Lapatinib) was > 10 µM. The “IC50, cell viability 72 h” value (AZD4320) was > 1 µM, the “IC50, cell viability 72 h” value (SN-38) was 0.0229 µM and the “IC50, cell viability 72 h” value (Carboplatin) was > 10 µM. The “IC50, cell viability 72 h” value (Gefitinib) was 9.59 µM, the “IC50, cell viability 72 h” value (Palbociclib) was 6.23 µM and the “IC50, cell viability 72 h” value (Dasatinib) was > 2 µM. The “IC50, cell viability 72 h” value (Trametinib) was > 1 µM, the “IC50, cell viability 72 h” value (AZD5363) was > 10 µM and the “IC50, cell viability 72 h” value (AZD5153) was 0.241 µM. For the same cell line, the “IC50, cell viability 72 h” value (MK-2206) was > 10 µM, the “IC50, cell viability 72 h” value (AZD1390) was > 0.3 µM and the “IC50, cell viability 72 h” value (Olaparib) was > 10 µM. The “IC50, cell viability 72 h” value [1] was > 5 µM, the “IC50, cell viability 72 h” value (Savolitinib) was > 1 µM and the “IC50, cell viability 72 h” value (Selumetinib) was > 10 µM. The “IC50, cell viability 72 h” value (Etoposide) was 5.56 µM, the “IC50, cell viability 72 h” value (Crizotinib) was 2.8 µM and the “IC50, cell viability 72 h” value (AZD7648) was > 10 µM. For the same cell line, the “IC50, cell viability 72 h” value (AZD2811) was 0.479 µM, the “IC50, cell viability 72 h” value (Gemcitabine) was 0.00696 µM and the “IC50, cell viability 72 h” value (Venetoclax) was > 1 µM. For the same cell line, the “IC50, cell viability 72 h” value (Doxorubicin) was 0.301 µM, the “IC50, cell viability 72 h” value (AZD8186) was > 10 µM and the “IC50, cell viability 72 h” value (Prexasertib) was 0.0101 µM. The “IC50, cell viability 72 h” value (SG3199) was > 0.001 µM, the “IC50, cell viability 72 h” value (Alisertib) was 0.106 µM and the “IC50, cell viability 72 h” value (AZD5991) was 0.17 µM. For the same cell line, the “IC50, cell viability 72 h” value (AZD0156; max 1 µM) was > 1 µM, the “IC50, cell viability 72 h” value (Paclitaxel) was < 0.003 µM and the “IC50, cell viability 72 h” value (5-Fluorouracil) was > 20 µM. The “IC50, cell viability 72 h” value (Taselisib) was > 10 µM and the “IC50, cell viability 72 h” value (AZD6738) was 0.754 µM.

With SNU-449 (Hepatocellular Carcinoma) the “IC50, cell viability 72 h” value (AZD1775; max 3 µM) was > 3 µM, the “IC50, cell viability 72 h” value (SRA737) was > 10 µM and the “IC50, cell viability 72 h” value (Lapatinib) was > 10 µM. The “IC50, cell viability 72 h” value (AZD4320) was > 1 µM, the “IC50, cell viability 72 h” value (SN-38) was > 0.3 µM and the “IC50, cell viability 72 h” value (Carboplatin) was > 10 µM. For the same cell line, the “IC50, cell viability 72 h” value (Gefitinib) was > 10 µM, the “IC50, cell viability 72 h” value (Palbociclib) was > 10 µM and the “IC50, cell viability 72 h” value (Dasatinib) was 1.26 µM. The “IC50, cell viability 72 h” value (Trametinib) was > 1 µM, the “IC50, cell viability 72 h” value (AZD5363) was > 10 µM and the “IC50, cell viability 72 h” value (AZD5153) was > 1 µM. For the same cell line, the “IC50, cell viability 72 h” value (MK-2206) was > 10 µM, the “IC50, cell viability 72 h” value (AZD1390) was > 0.3 µM and the “IC50, cell viability 72 h” value (Olaparib) was > 10 µM. For the same cell line, the “IC50, cell viability 72 h” value [1] was > 5 µM, the “IC50, cell viability 72 h” value (Savolitinib) was > 1 µM and the “IC50, cell viability 72 h” value (Selumetinib) was > 10 µM. The “IC50, cell viability 72 h” value (Etoposide) was > 10 µM, the “IC50, cell viability 72 h” value (Crizotinib) was > 10 µM and the “IC50, cell viability 72 h” value (AZD7648) was > 10 µM. For the same cell line, the “IC50, cell viability 72 h” value (AZD2811) was > 1 µM, the “IC50, cell viability 72 h” value (Gemcitabine) was > 0.3 µM and the “IC50, cell viability 72 h” value (Venetoclax) was > 1 µM. For the same cell line, the “IC50, cell viability 72 h” value (Doxorubicin) was > 1 µM, the “IC50, cell viability 72 h” value (AZD8186) was > 10 µM and the “IC50, cell viability 72 h” value (Prexasertib) was > 1 µM. The “IC50, cell viability 72 h” value (SG3199) was > 0.001 µM, the “IC50, cell viability 72 h” value (Alisertib) was > 10 µM and the “IC50, cell viability 72 h” value (AZD5991) was > 1 µM. The “IC50, cell viability 72 h” value (AZD0156; max 3 µM) was > 3 µM, the “IC50, cell viability 72 h” value (Paclitaxel) was > 3 µM and the “IC50, cell viability 72 h” value (5-Fluorouracil) was > 20 µM. The “IC50, cell viability 72 h” value (Taselisib) was > 10 µM and the “IC50, cell viability 72 h” value (AZD6738) was > 10 µM.

Reference: the supplement of paper PMC11061612
